Data published in ChEMBL document CHEMBL1777779, “Discovery of novel quaternary ammonium derivatives of (3R)-quinuclidinyl carbamates as potent and long acting muscarinic antagonists” (Bioorg Med Chem Lett, 2011).

How the values were obtained:
[1] = biological target: T1, Muscarinic acetylcholine receptor M1 (Homo sapiens, UniProt P11229); assay: Displacement of [3H]NMS from human muscarinic M1 receptor expressed in CHO-K1 cells after 1 hr by scintillation counting; type: cell-based
T1 sequence (P11229 whole entry): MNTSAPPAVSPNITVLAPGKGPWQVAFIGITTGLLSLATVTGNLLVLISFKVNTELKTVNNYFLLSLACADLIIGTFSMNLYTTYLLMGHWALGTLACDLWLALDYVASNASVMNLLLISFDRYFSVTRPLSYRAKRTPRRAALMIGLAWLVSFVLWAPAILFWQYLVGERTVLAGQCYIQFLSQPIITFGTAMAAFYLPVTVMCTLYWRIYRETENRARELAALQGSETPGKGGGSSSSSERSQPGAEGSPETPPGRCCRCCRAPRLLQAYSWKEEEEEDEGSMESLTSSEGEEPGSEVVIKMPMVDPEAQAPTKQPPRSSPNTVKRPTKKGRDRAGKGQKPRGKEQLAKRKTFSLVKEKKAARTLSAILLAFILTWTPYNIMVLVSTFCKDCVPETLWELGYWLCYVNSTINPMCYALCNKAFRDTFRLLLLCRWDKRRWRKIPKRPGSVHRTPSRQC

[2] = biological target: Muscarinic acetylcholine receptor M1 and M3 (Homo sapiens) (UniProt P20309+P11229); assay: Selectivity ratio of IC50 for human muscarinic M1 receptor to IC50 for human muscarinic M3 receptor
Muscarinic acetylcholine receptor M1 and M3 (Homo sapiens), sequence (P20309 whole entry, looked up, one chain of several): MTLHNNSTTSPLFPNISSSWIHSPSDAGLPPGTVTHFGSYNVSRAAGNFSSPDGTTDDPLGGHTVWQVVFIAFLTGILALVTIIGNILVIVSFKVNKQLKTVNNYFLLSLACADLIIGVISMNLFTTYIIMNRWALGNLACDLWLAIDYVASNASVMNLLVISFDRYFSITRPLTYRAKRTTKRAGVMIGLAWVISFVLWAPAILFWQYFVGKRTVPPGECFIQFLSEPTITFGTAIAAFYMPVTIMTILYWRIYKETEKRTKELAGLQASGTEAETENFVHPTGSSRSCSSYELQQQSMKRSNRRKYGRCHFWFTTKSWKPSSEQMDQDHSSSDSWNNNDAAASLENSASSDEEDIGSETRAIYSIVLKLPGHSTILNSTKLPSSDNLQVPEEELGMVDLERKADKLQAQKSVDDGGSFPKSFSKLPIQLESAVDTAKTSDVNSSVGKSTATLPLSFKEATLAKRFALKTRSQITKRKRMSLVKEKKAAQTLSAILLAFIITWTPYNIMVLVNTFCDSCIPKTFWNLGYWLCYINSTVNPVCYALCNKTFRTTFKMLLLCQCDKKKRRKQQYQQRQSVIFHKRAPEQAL

[3] = biological target: Muscarinic acetylcholine receptor M3 (Homo sapiens, UniProt P20309); assay: Displacement of [3H]NMS from human muscarinic M3 receptor expressed in CHO-K1 cells after 1 hr by scintillation counting; type: cell-based
Muscarinic acetylcholine receptor M3, sequence (P20309 whole entry): as the sequence (P20309 whole entry, looked up, one chain of several) above

[4] = biological target: T2, Muscarinic acetylcholine receptor M2 (Homo sapiens, UniProt P08172); assay: Displacement of [3H]NMS from human muscarinic M2 receptor expressed in CHO-K1 cells after 1 hr by scintillation counting; type: cell-based
T2 sequence (P08172 whole entry): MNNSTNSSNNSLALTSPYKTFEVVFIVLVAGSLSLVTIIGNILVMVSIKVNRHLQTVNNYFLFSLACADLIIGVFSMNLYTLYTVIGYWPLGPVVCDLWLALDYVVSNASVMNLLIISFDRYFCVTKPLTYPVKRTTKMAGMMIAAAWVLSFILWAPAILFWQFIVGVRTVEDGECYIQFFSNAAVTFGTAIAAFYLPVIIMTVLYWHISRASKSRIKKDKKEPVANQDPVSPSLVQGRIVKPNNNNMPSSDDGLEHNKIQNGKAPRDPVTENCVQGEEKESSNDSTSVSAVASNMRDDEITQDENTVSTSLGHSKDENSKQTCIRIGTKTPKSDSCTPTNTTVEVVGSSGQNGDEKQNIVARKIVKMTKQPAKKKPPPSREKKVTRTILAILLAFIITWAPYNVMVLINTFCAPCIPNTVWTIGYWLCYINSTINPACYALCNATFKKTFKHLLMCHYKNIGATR

Cavia porcellus [5] = assay: Inhibition of acetylcholine-induced bronchospasm in anesthetized Dunkin-Hartley guinea pig assessed as time required to recover 50% of maximum inhibitory effect at 1 mg/ml administered via nebulizer; type: functional
[6] = biological target: Muscarinic acetylcholine receptors; M2 & M3 (Homo sapiens) (UniProt P20309+P08172); assay: Selectivity ratio of IC50 for human muscarinic M2 receptor to IC50 for human muscarinic M3 receptor
Muscarinic acetylcholine receptors; M2 & M3 (Homo sapiens), sequence (P20309 whole entry, looked up, one chain of several): as the sequence (P20309 whole entry, looked up, one chain of several) above

Cavia porcellus [7] = assay: Inhibition of acetylcholine-induced bronchospasm in anesthetized Dunkin-Hartley guinea pig assessed as time required to recover 50% of maximum inhibitory effect at 3 mg/ml administered via nebulizer; type: functional

| Compound | IC50 [1] [nM] | Ratio IC50 [2] | IC50 [3] [nM] | IC50 [4] [nM] | Time (Cavia porcellus [5]) [h] | Ratio IC50 [6] | Time (Cavia porcellus [7]) [h] |
| --- | --- | --- | --- | --- | --- | --- | --- |
| O=C(O[C@H]1C[N+]2(CCOc3ccccc3)CCC1CC2)N(Cc1ccccc1)c1ccccc1.[Br-] | 1.7 | 1.7 | 1 | 3.9 | >6 | 3.9 |  |
| CCCCN(C(=O)O[C@H]1C[N+]2(CCCc3cccs3)CCC1CC2)c1ccccc1.[Br-] | 2 | 3.3 | 0.6 | 10.9 | >6 | 18.2 |  |
| O=C(O[C@H]1C[N+]2(CCc3ccccc3)CCC1CC2)N(Cc1ccccc1)c1ccccc1.[Br-] | 15.1 | 0.85 | 17.7 | 50.9 | <2 | 2.9 |  |
| O=C(O[C@H]1CN2CCC1CC2)N(Cc1ccsc1)c1ccccc1 | 0.4 | 0.4 | 1 | 4.7 | <4 | 4.7 |  |
| O=C(O[C@H]1CN2CCC1CC2)N(Cc1cccs1)Cc1cccs1 | 2.4 | 0.4 | 5.9 | 22.7 |  | 3.8 |  |
| O=C(O[C@H]1CN2CCC1CC2)N(Cc1cccs1)c1ccccc1 | 0.4 | 0.7 | 0.6 | 1.8 | <4 | 3 |  |
| CCCCN(Cc1cccs1)C(=O)O[C@H]1CN2CCC1CC2 | 0.8 | 0.04 | 17.7 | 76.2 |  | 4.3 |  |
| CCCN(C(=O)O[C@H]1CN2CCC1CC2)c1ccccc1 | 26.7 | 0.4 | 71.1 | 349 |  | 4.9 |  |
| O=C(O[C@H]1CN2CCC1CC2)N(Cc1ccccc1)c1ccccc1 | 0.4 | 0.3 | 1.2 | 3.7 |  | 3.1 | 1.5 |
| CCCCN(C(=O)O[C@H]1C[N+]2(CCc3ccccc3)CCC1CC2)c1ccccc1 | 33.3 | 1.7 | 19 | 121 |  | 6.3 |  |
| CCCCN(C(=O)O[C@H]1C[N+]2(CCCc3ccccc3)CCC1CC2)c1ccccc1 | 2.5 | 3.1 | 0.8 | 17.7 |  | 22.1 |  |
| O=C(O[C@H]1C[N+]2(CCCc3cccs3)CCC1CC2)N(Cc1ccccc1)c1ccccc1.[Br-] | 1.4 | 2.3 | 0.6 | 7.6 | >6 | 12.7 |  |
| O=C(O[C@H]1CN2CCC1CC2)N(c1ccccc1)c1ccccc1 | 319 | 0.4 | 797 | 2780 |  | 3.5 |  |
| O=C(O[C@H]1C[N+]2(CCOc3ccccc3)CCC1CC2)N(Cc1ccsc1)c1ccccc1.[Br-] | 0.4 | 2 | 0.2 | 1.6 | >6 | 8 |  |
| O=C(O[C@H]1CN2CCC1CC2)N(Cc1cccc(F)c1)c1cccc(F)c1 | 1.5 | 0.6 | 2.4 | 26.8 |  | 11.2 |  |
| Cc1cccc(N(Cc2cc(F)c(F)cc2F)C(=O)O[C@H]2C[N+]3(CCOc4ccccc4)CCC2CC3)c1.[Br-] | 2.4 | 2 | 1.2 | 28 | <6 | 23.3 |  |
| O=C(O[C@H]1C[N+]2(CCCc3cccs3)CCC1CC2)N(Cc1cccs1)c1ccccc1.[Br-] | 1.6 | 3.2 | 0.5 | 3.2 | >6 | 6.4 |  |
| CCCCCN(C(=O)O[C@H]1CN2CCC1CC2)c1ccccc1 | 0.8 | 0.5 | 1.7 | 13.6 |  | 8 |  |
